This note sets out measurements from patent publication US12240843B2, “Substituted 1,2,4-triazolo[4,3-a]pyridine derivative and preparation method, herbicidal composition and application thereof” (Qingdao Kingagroot Chemical Compound Co., Ltd., priority 2019, dated 2025).

Holding throughout (assay type): in vivo
The subject of one series is rice. The series is described as follows: Pre-emergence stage crop selectivity. As to conditions: dose not given. Here is the method:
(§1) Seeds of monocotyledonous and dicotyledonous weeds and main crops (e.g. wheat, corn, rice, soybean, cotton, oilseed rape, millet and Sorghum) were put into a plastic pot loaded with soil and covered with 0.5-2 cm soil. The test compounds of the present invention was dissolved with acetone, then added with tween 80, diluted by a certain amount of water to reach a certain concentration, and sprayed immediately after sowing. The obtained seeds were incubated for 4 weeks in the greenhouse after spraying and the test results were observed. It was observed that the herbicide mostly had excellent effect at the application rate of 250 g a.i./ha, especially to weeds such as Echinochloa crusgalli, Digitaria sanguinalis, Leptochloa chinensis, and Abutilon theophrasti, etc. . . . And many compounds had good selectivity for corn, wheat, rice, soybean, and oilseed rape, etc. . . .

The test system of series [1] is rice (indica rice huanghuazhan). The series is described as follows: Post-emergence stage crop damage, greenhouse pot spray. As to conditions: for plant damage level, rice (indica rice huanghuazhan), post-emergence: 240 g/ha active ingredient, plus water 450 kg/ha, 3 weeks after application. Here is the method:
(§2) (1) Experiment on weeding effect in post-emergence stage: monocotyledonous and dicotyledonous weed seeds and major crop seeds (wheat, corn, rice, soybean, cotton, oilseed rape, millet, Sorghum) were placed in plastic pots filled with soil, then covered with 0.5-2 cm of soil, allowed to grow in a good greenhouse environment. After 2 weeks of sowing, the test plants were treated. The tested compounds of the present invention were respectively dissolved in acetone, then added with Tween 80, diluted with a certain amount of water to obtain a solution with a certain concentration, added with 1000 g/ha of emulsified methyl oleate as a synergist, and sprayed with a spray tower onto the plants. After the application, the plants were cultured for 3 weeks in the greenhouse, and then the experimental results of the weeding were listed in Table 2-3.

The next series has as its system japonica rice. Described as above.
Description: (§3) The activity level criteria for plant damage (i.e., growth control rate) are as follows: • Level 5: growth control rate is above 85%; • Level 4: growth control rate is greater than or equal to 60% and less than 85%; • Level 3: growth control rate is greater than or equal to 40% and less than 60%; • Level 2: growth control rate is greater than or equal to 20% and less than 40%; • Level 1: growth control rate is greater than or equal to 5% and less than 20%; • Level 0: growth control rate is less than 5%.
(§4) The above growth control rates are fresh weight control rates.
as §2

The subject of a further series is Setaria viridis. In words: Weeding effect in post-emergence stage, greenhouse pot spray.
Description: as §3, §4, §2

Series [2] concerns Digitaria sanguinalis. In words: Weed effect in pre-emergence stage. Particulars: direct seeding of rice; dose not given. The protocol: as §1
In a further series the test system is Abutilon theophrasti. In words: Weed effect in pre-emergence stage. As to conditions: direct seeding of rice; dose not given. The protocol: as §1
Series [3] relates to Echinochloa crusgalli. The series is described as follows: Weed effect in pre-emergence stage. As to conditions: direct seeding of rice; dose not given. The protocol: as §1
For series [4], the system named is Leptochloa chinensis. The series is described as follows: Weed effect in pre-emergence stage. Particulars: direct seeding of rice; dose not given. Here is the method:
as §1

Series [5] deals with Digitaria sanguinalis. The series is described as follows: Weeding effect in post-emergence stage, greenhouse pot spray. The protocol:
as §4, §2

The subject of series [6] is Echinochloa crusgalli. Described as above. Here is the method:
as §4, §2

Series [7] concerns Amaranthus retroflexus L. The description is as above. Particulars: 240 g/ha active ingredient, plus water 450 kg/ha; weeds 2-3 leaf stage; 3 weeks after application. Here is the method: as §4, §2
Series [8] concerns Leptochloa chinensis. The series is described as above. Here is the method: as §4, §2
The mark [9] stands for this setting: 240 g/ha active ingredient, plus water 450 kg/ha, weeds 2-3 leaf stage, 3 weeks after application.

`O=C1CCCC(=O)C1C(=O)c1ccn2c(C3CC3)nnc2c1Cl` [Compound 2]: in the series with rice, the “safety for direct seeding of rice, pre-emergence” value was “safe and efficient”. In series [1], the “plant damage level, rice (indica rice huanghuazhan), post-emergence” value (“plant damage level, rice” below) is recorded as 0 (Level 0: growth control rate is less than 5%). The “plant damage level, indica rice, post-emergence” value in series [1] (Dose 30 g/ha), in [1] (Dose 60 g/ha) and in series [1] (Dose 120 g/ha) was 0 (Level 0: growth control rate is less than 5%) throughout. The “plant damage level, japonica rice, post-emergence” value in the series on japonica rice (Dose 30 g/ha), in the series on japonica rice (Dose 60 g/ha) and with japonica rice (Dose 120 g/ha) was 0 (Level 0: growth control rate is less than 5%) throughout. For the same compound, the “weeding effect in post-emergence stage, Setaria viridis (activity level)” value with Setaria viridis (Dose 30 g/ha), in the series on Setaria viridis (Dose 60 g/ha) and in the series on Setaria viridis (Dose 120 g/ha) was 5 (Level 5: growth control rate is above 85%) in each case. In the series with Digitaria sanguinalis [2], the “sealing effects on Digitaria sanguinalis, pre-emergence” value is given as “excellent sealing effects”. Also, the “sealing effects on Abutilon theophrasti, pre-emergence” value in the series on Abutilon theophrasti is “excellent sealing effects”. The “sealing effects on Echinochloa crusgalli, pre-emergence” value in the series with Echinochloa crusgalli [3] is given as “excellent sealing effects”. In addition, the “sealing effects on Leptochloa chinensis, pre-emergence” value with Leptochloa chinensis [4] is “excellent sealing effects”. For the same compound, the “weeding effect in post-emergence stage, Digitaria sanguinalis (activity level)” value with Digitaria sanguinalis [5] (setting [9]), with Digitaria sanguinalis [5] (Dose 30 g/ha), in the series with Digitaria sanguinalis [5] (Dose 60 g/ha) and in the series on Digitaria sanguinalis [5] (Dose 120 g/ha) was 5 (Level 5: growth control rate is above 85%) each time. For the same compound, the “weeding effect in post-emergence stage, Echinochloa crusgalli (activity level)” value in the series on Echinochloa crusgalli [6] (setting [9]), in the series on Echinochloa crusgalli [6] (Dose 30 g/ha), in the series with Echinochloa crusgalli [6] (Dose 60 g/ha) and in the series on Echinochloa crusgalli [6] (Dose 120 g/ha) was 5 (Level 5: growth control rate is above 85%) in each case. The “weeding effect in post-emergence stage, Amaranthus retroflexus L. (activity level)” value in series [7] was 5 (Level 5: growth control rate is above 85%). Moreover, the “weeding effect in post-emergence stage, Leptochloa chinensis (activity level)” value in the series on Leptochloa chinensis [8] (setting [9]), with Leptochloa chinensis [8] (Dose 30 g/ha), with Leptochloa chinensis [8] (Dose 60 g/ha) and with Leptochloa chinensis [8] (Dose 120 g/ha) was 5 (Level 5: growth control rate is above 85%) throughout.

Regarding `O=C1CCCC(=O)C1C(=O)c1ccn2c(C3CC3(F)F)nnc2c1Cl` (centres unmarked) [Compound 87], the “plant damage level, rice” value in series [1] is on record as 0 (Level 0: growth control rate is less than 5%). For the same compound, the “weeding effect in post-emergence stage, Digitaria sanguinalis (activity level)” value with Digitaria sanguinalis [5] (setting [9]) is 4 (Level 4: growth control rate is greater than or equal to 60% and less than 85%). In the series on Echinochloa crusgalli [6] (setting [9]), the “weeding effect in post-emergence stage, Echinochloa crusgalli (activity level)” value was 4 (Level 4: growth control rate is greater than or equal to 60% and less than 85%). The “weeding effect in post-emergence stage, Amaranthus retroflexus L. (activity level)” value in series [7] is given as 5 (Level 5: growth control rate is above 85%). In addition, the “weeding effect in post-emergence stage, Leptochloa chinensis (activity level)” value in the series with Leptochloa chinensis [8] (setting [9]) was 5 (Level 5: growth control rate is above 85%).

As for `COc1nnc2c(Cl)c(C(=O)C3C(=O)CCCC3=O)ccn12` [Compound 114], in series [1], the “plant damage level, rice” value is recorded as 0 (Level 0: growth control rate is less than 5%). In the series on Digitaria sanguinalis [5] (setting [9]), the “weeding effect in post-emergence stage, Digitaria sanguinalis (activity level)” value is 5 (Level 5: growth control rate is above 85%). The “weeding effect in post-emergence stage, Echinochloa crusgalli (activity level)” value in the series with Echinochloa crusgalli [6] (setting [9]) is on record as 5 (Level 5: growth control rate is above 85%). In [7], the “weeding effect in post-emergence stage, Amaranthus retroflexus L. (activity level)” value is listed as 5 (Level 5: growth control rate is above 85%). In addition, the “weeding effect in post-emergence stage, Leptochloa chinensis (activity level)” value in the series with Leptochloa chinensis [8] (setting [9]) is reported as 5 (Level 5: growth control rate is above 85%).

Consider `CSc1nnc2c(Cl)c(C(=O)C3C(=O)CCCC3=O)ccn12` [Compound 118], for which the “plant damage level, rice” value in series [1] is on record as 0 (Level 0: growth control rate is less than 5%). In the series with Digitaria sanguinalis [5] (setting [9]), the “weeding effect in post-emergence stage, Digitaria sanguinalis (activity level)” value is given as 5 (Level 5: growth control rate is above 85%). Further, the “weeding effect in post-emergence stage, Echinochloa crusgalli (activity level)” value in the series with Echinochloa crusgalli [6] (setting [9]) is given as 5 (Level 5: growth control rate is above 85%). Also, the “weeding effect in post-emergence stage, Amaranthus retroflexus L. (activity level)” value in [7] is recorded as 5 (Level 5: growth control rate is above 85%). In the series with Leptochloa chinensis [8] (setting [9]), the “weeding effect in post-emergence stage, Leptochloa chinensis (activity level)” value is reported as 5 (Level 5: growth control rate is above 85%).

On to `O=C(c1ccn2c(C3CC3)nnc2c1Cl)C1C(=O)C2CCC(C2)C1=O` (centres unmarked) [Compound 274], for which the “safety for direct seeding of rice, pre-emergence” value with rice was “safe and efficient”. The “plant damage level, rice” value in [1] is reported as 0 (Level 0: growth control rate is less than 5%). Moreover, the “plant damage level, indica rice, post-emergence” value in series [1] (Dose 30 g/ha), in series [1] (Dose 60 g/ha) and in [1] (Dose 120 g/ha) was 0 (Level 0: growth control rate is less than 5%) throughout. Also, the “plant damage level, japonica rice, post-emergence” value with japonica rice (Dose 30 g/ha), in the series on japonica rice (Dose 60 g/ha) and with japonica rice (Dose 120 g/ha) was 0 (Level 0: growth control rate is less than 5%) in each case. The “weeding effect in post-emergence stage, Setaria viridis (activity level)” value in the series on Setaria viridis (Dose 30 g/ha), with Setaria viridis (Dose 60 g/ha) and with Setaria viridis (Dose 120 g/ha) was 5 (Level 5: growth control rate is above 85%) each time. Moreover, the “sealing effects on Digitaria sanguinalis, pre-emergence” value in the series with Digitaria sanguinalis [2] is on record as “excellent sealing effects”. Further, in the series with Abutilon theophrasti, the “sealing effects on Abutilon theophrasti, pre-emergence” value is “excellent sealing effects”. For the same compound, in the series with Echinochloa crusgalli [3], the “sealing effects on Echinochloa crusgalli, pre-emergence” value is “excellent sealing effects”. Further, in the series on Leptochloa chinensis [4], the “sealing effects on Leptochloa chinensis, pre-emergence” value was “excellent sealing effects”. Besides, the “weeding effect in post-emergence stage, Digitaria sanguinalis (activity level)” value in the series with Digitaria sanguinalis [5] (setting [9]), with Digitaria sanguinalis [5] (Dose 30 g/ha), with Digitaria sanguinalis [5] (Dose 60 g/ha) and in the series with Digitaria sanguinalis [5] (Dose 120 g/ha) was 5 (Level 5: growth control rate is above 85%) each time. For the same compound, the “weeding effect in post-emergence stage, Echinochloa crusgalli (activity level)” value in the series with Echinochloa crusgalli [6] (setting [9]), in the series on Echinochloa crusgalli [6] (Dose 30 g/ha), in the series on Echinochloa crusgalli [6] (Dose 60 g/ha) and in the series with Echinochloa crusgalli [6] (Dose 120 g/ha) was 5 (Level 5: growth control rate is above 85%) throughout. Also, in series [7], the “weeding effect in post-emergence stage, Amaranthus retroflexus L. (activity level)” value is 5 (Level 5: growth control rate is above 85%). The “weeding effect in post-emergence stage, Leptochloa chinensis (activity level)” value with Leptochloa chinensis [8] (setting [9]), in the series with Leptochloa chinensis [8] (Dose 30 g/ha), with Leptochloa chinensis [8] (Dose 60 g/ha) and with Leptochloa chinensis [8] (Dose 120 g/ha) was 5 (Level 5: growth control rate is above 85%) in each case.
